Results: paper PMC11089506 (Journal of Medicinal Chemistry, 2024)
Counter-ions that a name gives are not always drawn. Like-named read-outs stand apart in the source and are kept apart here.

How the values were obtained:
Adenosine receptor A1 = biological target: T1, Adenosine receptor A1 (Homo sapiens, UniProt P30542); assay: radioligand competition binding, [3H]DPCPX
T1 construct: Eurofins

Opioid receptor δ = biological target: T2, Opioid receptor δ (Homo sapiens, UniProt P41143); assay: radioligand competition binding, [3H] Naltrindole
T2 construct: Eurofins

Adenosine receptor A3 = biological target: T3, Adenosine receptor A3 (Homo sapiens, UniProt P0DMS8); assay: radioligand competition binding, [125I]AB-MECA
T3 construct: Eurofins

[1] = biological target: T4, Epidermal Growth Factor receptor (Homo sapiens, UniProt P00533); assay: radioligand competition binding, [125I]EGF
T4 construct: Eurofins

5-HT5a = biological target: T5, 5-HT5a (Homo sapiens, UniProt P47898); assay: radioligand competition binding, [3H]LSD; conditions: read-out: % inhibition of the specific radioligand binding
T5 construct: Eurofins

[2] = biological target: T6, Platelet Activating Factor Receptor (Homo sapiens, UniProt P25105); assay: radioligand competition binding, [3H]PAF
T6 construct: Eurofins

Kainate receptor = assay: radioligand competition binding, [3H]Kainic acid; set-up: species or system rat
[3] = LogP / log D determination, 1-octanol/phosphate buffer; assay type: physicochemical
Protocol: LogP Log D log D log D log D log D log D log D
Phosphate buffer (PB) with the pH ranging from 1.8 to 12.0 and Octanol saturated with water was used. 2 μL of 10 mM DMSO stock solution of test and control compounds was aliquoted into tubes in duplicate. Added 149 μL of PB (pH 1.8, 2.5, 4.5, 7.4, 9.5,11.0 and 12.0)-Saturated […]
was added, respectively. Each of the tubes was vigorously mixed for 2 minutes and then shook for 1 hour at a speed of 800 rpm at room temperature. Following centrifugation at 4000 rpm for 5 minutes at room temperature, appropriate volume of buffer layer samples and 1-octanol layer samples was aliquoted. These samples were diluted and detected by using LC -MS/MS method without running a calibration curve.
The log D values were calculated with the following equation:
(also on this page, place not known: temperature , 1 -octanol Log Doctanol/buffer = log( Mean Octanol Layer Peak Area Ratio ∗ Octanol Layer Dilution Factor Mean Buffer Layer Peak Area Ratio ∗ Buffer Layer Dilution Factor) […]
(1 picture or pasted object on this page, not shown here)

[4] = biological target: T7, H2 (histaminergic receptor) (Homo sapiens, UniProt P25021); assay: radioligand competition binding, [125I]APT
T7 construct: Eurofins

GABAA receptor (GABA) = assay: radioligand competition binding, [3H]Muscimol; set-up: species or system rat
Thyroid hormone receptor = assay: radioligand competition binding, [125I]Triiodothyronine; set-up: species or system rat
DAT = biological target: T8, DAT (Homo sapiens, UniProt Q01959); assay: radioligand competition binding, [3H]BTCP
T8 construct: Eurofins

[5] = estimated from the % inhibition data
[6] = read-out: % inhibition of the specific radioligand binding

T6 sequence (P25105 whole entry): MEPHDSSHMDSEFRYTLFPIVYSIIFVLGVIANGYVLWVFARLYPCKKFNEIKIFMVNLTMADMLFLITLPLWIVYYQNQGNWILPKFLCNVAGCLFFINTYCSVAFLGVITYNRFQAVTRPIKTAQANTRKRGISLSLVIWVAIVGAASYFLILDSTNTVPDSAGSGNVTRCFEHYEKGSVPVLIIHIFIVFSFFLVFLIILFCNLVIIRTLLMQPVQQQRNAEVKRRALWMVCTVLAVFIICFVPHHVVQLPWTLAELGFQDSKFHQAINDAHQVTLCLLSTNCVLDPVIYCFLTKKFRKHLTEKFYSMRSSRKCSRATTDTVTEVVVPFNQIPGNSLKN
T7 sequence (P25021 whole entry): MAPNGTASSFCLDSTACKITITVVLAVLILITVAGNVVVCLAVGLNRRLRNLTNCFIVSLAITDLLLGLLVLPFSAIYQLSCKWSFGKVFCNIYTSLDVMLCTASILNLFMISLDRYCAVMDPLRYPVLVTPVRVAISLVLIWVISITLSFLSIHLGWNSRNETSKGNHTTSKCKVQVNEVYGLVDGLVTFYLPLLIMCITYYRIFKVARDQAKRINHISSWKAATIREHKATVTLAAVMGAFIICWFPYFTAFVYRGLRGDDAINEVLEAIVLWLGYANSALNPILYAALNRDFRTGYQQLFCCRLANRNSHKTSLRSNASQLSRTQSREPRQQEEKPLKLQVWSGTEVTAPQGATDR
T4 sequence (P00533 25-1210): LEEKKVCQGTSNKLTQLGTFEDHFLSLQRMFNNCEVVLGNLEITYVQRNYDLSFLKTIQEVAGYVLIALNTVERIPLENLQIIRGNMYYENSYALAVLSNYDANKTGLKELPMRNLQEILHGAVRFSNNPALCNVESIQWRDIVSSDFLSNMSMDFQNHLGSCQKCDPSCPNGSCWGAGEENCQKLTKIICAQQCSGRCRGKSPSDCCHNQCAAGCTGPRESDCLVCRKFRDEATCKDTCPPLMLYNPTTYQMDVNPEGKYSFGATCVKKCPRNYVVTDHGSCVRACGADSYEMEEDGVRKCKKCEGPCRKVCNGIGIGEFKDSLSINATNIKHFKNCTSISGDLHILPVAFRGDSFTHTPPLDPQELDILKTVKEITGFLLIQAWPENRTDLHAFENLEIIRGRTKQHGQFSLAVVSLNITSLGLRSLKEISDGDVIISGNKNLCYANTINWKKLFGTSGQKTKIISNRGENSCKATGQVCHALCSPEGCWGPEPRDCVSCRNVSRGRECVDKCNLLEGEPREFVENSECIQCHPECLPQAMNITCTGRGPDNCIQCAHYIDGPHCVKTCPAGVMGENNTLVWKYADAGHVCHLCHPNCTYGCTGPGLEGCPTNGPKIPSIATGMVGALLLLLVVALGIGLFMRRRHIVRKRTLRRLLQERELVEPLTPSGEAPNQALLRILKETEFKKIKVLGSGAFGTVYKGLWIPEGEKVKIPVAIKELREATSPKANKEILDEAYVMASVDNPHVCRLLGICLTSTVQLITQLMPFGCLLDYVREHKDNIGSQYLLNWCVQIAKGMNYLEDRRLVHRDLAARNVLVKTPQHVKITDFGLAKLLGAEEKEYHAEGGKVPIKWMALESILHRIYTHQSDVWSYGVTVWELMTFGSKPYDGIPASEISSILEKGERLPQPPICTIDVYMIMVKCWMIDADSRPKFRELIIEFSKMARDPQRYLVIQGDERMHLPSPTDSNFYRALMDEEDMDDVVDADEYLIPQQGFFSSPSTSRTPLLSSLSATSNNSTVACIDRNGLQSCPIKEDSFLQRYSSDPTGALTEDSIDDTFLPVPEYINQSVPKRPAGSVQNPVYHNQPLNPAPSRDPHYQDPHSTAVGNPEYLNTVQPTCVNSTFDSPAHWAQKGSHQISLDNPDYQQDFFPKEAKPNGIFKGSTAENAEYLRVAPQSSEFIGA
T8 sequence (Q01959 whole entry): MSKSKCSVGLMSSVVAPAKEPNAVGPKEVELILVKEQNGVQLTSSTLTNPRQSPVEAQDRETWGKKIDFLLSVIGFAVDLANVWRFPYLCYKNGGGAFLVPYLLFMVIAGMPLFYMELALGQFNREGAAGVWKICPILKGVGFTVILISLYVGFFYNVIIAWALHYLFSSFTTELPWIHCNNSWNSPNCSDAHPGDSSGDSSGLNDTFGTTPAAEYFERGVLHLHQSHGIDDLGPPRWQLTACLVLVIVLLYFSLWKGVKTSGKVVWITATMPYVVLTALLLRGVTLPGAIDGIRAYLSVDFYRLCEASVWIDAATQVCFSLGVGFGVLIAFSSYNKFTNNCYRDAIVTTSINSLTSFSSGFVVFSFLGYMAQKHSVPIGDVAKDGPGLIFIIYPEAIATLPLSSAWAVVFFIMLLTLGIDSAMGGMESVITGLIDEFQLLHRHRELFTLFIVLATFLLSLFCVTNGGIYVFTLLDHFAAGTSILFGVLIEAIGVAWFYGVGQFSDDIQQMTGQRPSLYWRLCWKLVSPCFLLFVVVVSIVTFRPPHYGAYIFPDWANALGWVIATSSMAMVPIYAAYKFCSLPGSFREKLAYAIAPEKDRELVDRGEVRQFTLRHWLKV
T3 sequence (P0DMS8 whole entry): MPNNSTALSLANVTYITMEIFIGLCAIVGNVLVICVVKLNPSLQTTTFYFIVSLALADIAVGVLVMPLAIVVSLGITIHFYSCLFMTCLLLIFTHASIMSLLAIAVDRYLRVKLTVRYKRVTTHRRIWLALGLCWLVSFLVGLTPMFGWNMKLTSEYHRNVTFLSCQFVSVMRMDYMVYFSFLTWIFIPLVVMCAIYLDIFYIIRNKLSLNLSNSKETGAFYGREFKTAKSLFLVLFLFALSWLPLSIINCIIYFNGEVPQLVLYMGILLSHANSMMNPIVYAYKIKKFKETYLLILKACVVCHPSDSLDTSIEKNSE
T2 sequence (P41143 whole entry): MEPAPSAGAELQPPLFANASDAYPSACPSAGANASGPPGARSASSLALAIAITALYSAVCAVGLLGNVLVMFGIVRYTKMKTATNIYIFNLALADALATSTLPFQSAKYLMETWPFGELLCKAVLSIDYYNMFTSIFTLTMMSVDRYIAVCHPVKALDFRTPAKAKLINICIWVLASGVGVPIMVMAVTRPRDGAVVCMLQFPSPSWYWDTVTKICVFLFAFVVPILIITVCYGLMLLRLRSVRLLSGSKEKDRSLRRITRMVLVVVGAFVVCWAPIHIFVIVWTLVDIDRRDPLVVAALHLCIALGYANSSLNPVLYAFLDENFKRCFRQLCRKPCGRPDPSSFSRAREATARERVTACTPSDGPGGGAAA
T1 sequence (P30542 whole entry): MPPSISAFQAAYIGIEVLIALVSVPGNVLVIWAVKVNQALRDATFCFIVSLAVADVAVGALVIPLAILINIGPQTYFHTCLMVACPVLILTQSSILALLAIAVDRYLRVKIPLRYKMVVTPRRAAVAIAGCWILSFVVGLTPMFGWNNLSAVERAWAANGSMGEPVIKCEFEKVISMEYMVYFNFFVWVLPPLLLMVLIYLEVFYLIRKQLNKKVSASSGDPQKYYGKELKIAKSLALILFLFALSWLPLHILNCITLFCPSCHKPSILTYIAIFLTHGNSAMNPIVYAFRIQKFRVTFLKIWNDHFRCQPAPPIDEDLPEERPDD
T5 sequence (P47898 whole entry): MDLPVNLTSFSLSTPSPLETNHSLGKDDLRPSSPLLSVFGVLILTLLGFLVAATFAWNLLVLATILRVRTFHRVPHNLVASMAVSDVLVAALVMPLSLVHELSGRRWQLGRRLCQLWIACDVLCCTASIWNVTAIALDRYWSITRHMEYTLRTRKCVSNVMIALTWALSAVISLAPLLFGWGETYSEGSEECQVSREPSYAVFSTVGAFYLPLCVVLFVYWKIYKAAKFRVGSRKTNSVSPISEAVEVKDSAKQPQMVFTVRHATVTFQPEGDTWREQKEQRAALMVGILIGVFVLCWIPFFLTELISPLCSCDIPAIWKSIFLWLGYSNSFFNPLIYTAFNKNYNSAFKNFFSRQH

COc1cc(C(F)(F)F)c(OC)cc1[C@@H]1CCCNC1 [(S)-11, 3-(2,5-Dimethoxy-4-(trifluoromethyl)phenyl)piperidine Hydrochloride]
IC50 (Adenosine receptor A1; [5]): > 10 µM
inhibition at 10 µM (Adenosine receptor A1; [6]): 4%
IC50 (Opioid receptor δ; [5]): > 10 µM
inhibition at 10 µM (Opioid receptor δ; [6]): 18%
IC50 (Adenosine receptor A3; [5]): > 10 µM
inhibition at 10 µM (Adenosine receptor A3; [6]): -10%
IC50 [1, 5]: > 10 µM
inhibition at 10 µM [1, 6]: -18%
inhibition at 10 µM (5-HT5a): 4%
IC50 [2, 5]: > 10 µM
inhibition at 10 µM [2, 6]: -11%
% inhibition of the specific radioligand binding (Kainate receptor; (S)-11 10 μM, n=1): 9%
IC50 (Kainate receptor; [5]): > 10 µM
logP at 1 h ([3]; main text and Figure 6): 3.45
logD ([3]; pH 1.8, read-out: Log D (pH 1.8)): -0.815
logD ([3]; pH 2.5, read-out: log D (pH2.5)): -0.536
logD ([3]; pH 4.5, read-out: log D (pH4.5)): -0.376
logD ([3]; pH 7.4, read-out: log D (pH7.4)): 0.659
logD ([3]; pH 9.5, read-out: log D (pH9.5)): 1.99
logD ([3]; pH 11.0, read-out: log D (pH11.0)): 3.4
logD ([3]; pH 12.0, read-out: log D (pH12.0)): 3.5
IC50 [4, 5]: > 10 µM
inhibition at 10 µM [4, 6]: 10%
% inhibition of the specific radioligand binding (GABAA receptor (GABA); (S)-11 10 μM, n=1): 1%
IC50 (GABAA receptor (GABA); [5]): > 10 µM
% inhibition of the specific radioligand binding (Thyroid hormone receptor; (S)-11 10 μM, n=1): -1%
IC50 (Thyroid hormone receptor; [5]): > 10 µM
IC50 (DAT; [5]): > 10 µM
inhibition at 10 µM (DAT; [6]): 12%
